The target in the assay is T1, SOS1 protein (Homo sapiens, UniProt Q07889).
T1 sequence (Q07889 1-1333): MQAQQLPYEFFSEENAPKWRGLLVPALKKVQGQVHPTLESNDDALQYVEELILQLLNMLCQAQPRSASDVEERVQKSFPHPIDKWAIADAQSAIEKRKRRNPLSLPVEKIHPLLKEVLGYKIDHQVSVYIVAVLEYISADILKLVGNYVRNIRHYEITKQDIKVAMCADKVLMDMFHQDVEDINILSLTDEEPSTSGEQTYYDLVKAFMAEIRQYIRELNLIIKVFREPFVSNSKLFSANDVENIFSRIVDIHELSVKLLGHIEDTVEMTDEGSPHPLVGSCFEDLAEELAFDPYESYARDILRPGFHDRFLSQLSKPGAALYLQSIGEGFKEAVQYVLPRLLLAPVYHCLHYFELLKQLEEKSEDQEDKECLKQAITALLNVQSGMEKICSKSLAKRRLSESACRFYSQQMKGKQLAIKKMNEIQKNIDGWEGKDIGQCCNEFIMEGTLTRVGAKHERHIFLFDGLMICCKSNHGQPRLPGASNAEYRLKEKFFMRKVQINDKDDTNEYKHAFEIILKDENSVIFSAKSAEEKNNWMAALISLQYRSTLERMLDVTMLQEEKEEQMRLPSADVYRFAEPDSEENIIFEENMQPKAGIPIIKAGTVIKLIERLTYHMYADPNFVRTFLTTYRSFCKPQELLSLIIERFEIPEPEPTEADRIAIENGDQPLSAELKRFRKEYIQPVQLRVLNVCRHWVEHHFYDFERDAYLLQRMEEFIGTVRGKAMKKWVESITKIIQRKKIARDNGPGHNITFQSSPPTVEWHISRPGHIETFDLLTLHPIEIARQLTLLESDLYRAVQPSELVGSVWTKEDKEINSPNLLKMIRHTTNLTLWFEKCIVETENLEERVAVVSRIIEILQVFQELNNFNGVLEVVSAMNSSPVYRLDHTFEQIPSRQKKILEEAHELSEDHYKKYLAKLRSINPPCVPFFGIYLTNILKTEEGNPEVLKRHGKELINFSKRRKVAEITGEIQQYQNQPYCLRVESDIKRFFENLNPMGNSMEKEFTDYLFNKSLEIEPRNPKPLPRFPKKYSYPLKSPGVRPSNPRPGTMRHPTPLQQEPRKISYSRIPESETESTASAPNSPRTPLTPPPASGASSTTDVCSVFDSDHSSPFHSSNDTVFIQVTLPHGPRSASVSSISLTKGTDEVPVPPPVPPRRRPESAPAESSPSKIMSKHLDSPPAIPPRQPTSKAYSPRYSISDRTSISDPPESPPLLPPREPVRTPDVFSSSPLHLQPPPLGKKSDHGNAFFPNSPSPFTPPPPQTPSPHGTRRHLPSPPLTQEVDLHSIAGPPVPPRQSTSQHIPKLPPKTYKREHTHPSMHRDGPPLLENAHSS
Description: SOS1 degradation assay (Western blot) in A-427 cells. In kind it is cell-based. The arrangement: host or cells: NCI-H358, A-427, SW-620, DLD-1 (human cancer cell lines). The conditions noted are these: A-427 (KRAS G12D), 24 h; for DC50: read-out: A427 (G12D) DC50; for Dmax: read-out: A427 (G12D) Dmax. On the procedure:
Test Example 2: SOS1 Degradation Assay
The degradation of SOS1 by the compounds was investigated on KRAS G12C mutant human non-small cell lung cancer cells NCI-H358 (ATCC or Stem Cell Bank, Chinese Academy of Sciences), KRAS G12D mutant human lung cancer cells A-427 (ATCC), KRAS G12V mutant human colorectal adenocarcinoma cells SW-620 (ATCC), and KRAS G13D mutant human colorectal adenocarcinoma epithelial cells DLD-1 (ATCC). The specific procedures were as follows:
0.95 mL of cells were seeded into each well of a 24-well cell culture plate to achieve a cell density of 5×10^5 cells/well; the cell plate was incubated in an incubator at 37° C. with 5% CO2 overnight. Then 50 μL of the compound solution after dilution was added to each of the wells with the corresponding cells, so that the final concentration of the compound was in a range of 0.03-3000 nM. The final concentration of DMSO was 0.25%.
After dosing, the cell plate was incubated in an incubator at 37° C. with 5% CO2 for 24 h. The cell culture medium in the 24-well plate was removed, and the plate was washed twice with 1×PBS. 180 μL of RIPA (strong) lysis buffer (Beyotime, P0013B) supplemented with 1 mM phenylmethylsulfonyl fluoride, a protease inhibitor mixture (Beyotime, P1008), and a protease phosphatase inhibitor mixture (Beyotime, P1045) was added to lyse adherent NCI-H358 cells at the bottom of the cell culture plate. After the plate was left to stand on ice for 30 min, the protein lysate in each well was transferred to a 1.5 mL centrifuge tube and centrifuged at 15000 g for 20 min at 4° C. […] The concentration of total protein in the cell lysate supernatant was determined using the BCA Protein Quantification Kit (Tiangen, PA115-02). […]
The concentration of total protein in the cell lysate was determined by BCA. […] After the blocking, the PVDF membrane was incubated with an SOS1 primary antibody (Abcam, ab140621) at 4° C. overnight, washed with a TBST buffer (2.4 g of Tris, 8.8 g of NaCl, 1.5 mL of Tween 20, with pH adjusted to 7.4, with the volume brought to 1 L) for 30 min (10 min/time), incubated with a secondary antibody (Abcam, ab205718) at room temperature for 2 h, washed with a TBST buffer for 30 min (10 min/time), and finally incubated with Clarity Western ECL Substrate (BIO-RAD, 170-5061) for 5 min for luminescence and color development, and a chemiluminescence imaging system (Clinx, ChemiScope 6200 Touch) was used for color development and protein mapping. […] The gray correction value for each sample was calculated by the formula: gray correction value=(gray value of target protein/gray value of corresponding internal reference)×103. Then the degradation rate was calculated by comparing the gray correction value with the gray correction value of the control group. […]
In general terms: A western blot detects proteins with antibodies after separation by electrophoresis.

Bounds are passed on as bounds.

As to `COc1cc2nc(C)nc(N[C@H](C)c3cc(-c4c(Cl)cccc4CN(C)C)cs3)c2cc1[C@H]1CC[C@H](C(=O)N2CCN(CC3CCC4(CC3)CCN(C(=O)c3ccc(Cl)c(N5CCC(=O)NC5=O)c3)CC4)CC2)CC1` [Example 1, 1-(2-chloro-5-(9-((4-((1R,4R)-4-(4-(((R)-1-(4-(2-chloro-6-((dimethylamino)methyl)phenyl)thien-2-yl)ethyl)amino)-7-methoxy-2-methylquinazolin-6-yl)cyclohexane-1-carbonyl)piperazin-1-yl)methyl)-3-azaspiro[5.5]undecane-3-carbonyl)phenyl)dihydropyrimidine-2,4(1H,3H)-dione], the DC50 is at most 50 nM and the greatest degradation seen (Dmax) lay within 80 to 100%.
For `COc1cc2nc(C)nc(N[C@H](C)c3cc(-c4c(Cl)cccc4CN(C)C)cs3)c2cc1[C@H]1CC[C@H](C(=O)N2CCC(CCOCC3CCN(C(=O)c4ccc(Cl)c(N5CCC(=O)NC5=O)c4)CC3)CC2)CC1` [Example 5, 1-(2-chloro-5-(4-((2-(1-((1R,4R)-4-(4-(((R)-1-(4-(2-chloro-6-((dimethylamino)methyl)phenyl)thien-2-yl)ethyl)amino)-7-methoxy-2-methylquinazolin-6-yl)cyclohexane-1-carbonyl)piperidin-4-yl)ethoxy)methyl)piperidine-1-carbonyl)phenyl)dihydropyrimidine-2,4(1H,3H)-dione], the DC50 was at most 50 nM and the Dmax is 50 to 80%.

One may read the DC50 as the midpoint of the concentration-degradation curve. By Dmax is commonly meant the greatest extent of degradation seen.

The record behind these values is US20240261418A1, “SOS1 DEGRADING AGENT AND PREPARATION METHOD THEREFOR AND APPLICATION THEREOF” (SHANGHAI LEADINGTAC PHARMACEUTICAL CO. LTD., priority 2021, published 2024).
